Results on three molecules are retold here after patent EP0930296A1, “FLUORINATED PROSTAGLANDIN DERIVATIVES AND MEDICINES” (ASAHI GLASS COMPANY LTD., priority 1996, dated 1998).

The test system of data set [1] is crab-eating macaques. Kind of data set: Effects on intraocular pressure (air-puff applanation tonometer, ketamine anesthesia). Format: in vivo. Particulars: for Change in ocular pressure after application: average of 8 subjects, relative to initial intraocular pressure. As for the experimental part: The effect of a compound of the present invention on intraocular pressure was studied in accordance with the method disclosed in a report of a study on the effect of the tromethamine salt and the isopropyl ester of PGF2α on intraocular pressure in crab-eating macaques (Exp. Eye Res., 61, 677-683 (1995)).
Male crab-eating macaques weighing from 5 to 7.5 kg (5-10 years old) were used in the test. The intraocular pressures were measured just before and 2, 4 and 6 hours after application of the test compound under ketamine anesthasia (5-10 mg/kg, intramuscular administration) by means of an air-puff applanation tonometer.
The results of application of 0.1% (w/v) ophthalmic solution containing Latanoprost (reference pharmaceutical 1), which is known as a therapeutic agent for glaucoma are also shown in Table 1.

Data set [2] relates to Japanese white rabbits. Kind of data set: Test on eye irritations: conditions of the front of the eye, scores by improved Draize method. Format: in vivo. Particulars: for scored in total, as much as Latanoprost did: ratio of total scores, Table 2 to Table 3; for Condition of nictitating membrane / Edema of eyelid conjunctiva / Iridial congestion / Opacity of the cornea / Opaque fraction of the cornea / Rubor of eyelid conjunctiva / Rubor of supraocular conjunctiva / Secretions / Total score: ten times at 30 minute intervals; for Total score: sum of the scores. How it is done: The eye irritation caused by a compound of the present invention was investigated in accordance with the method of Fukui et al. ("[…]-no-rinsho", 4277-89 (1970)). Male Japanese white rabbits weighing about 2.5 kg were used in the test. A test compound was applied into the conjunctival sac of a right eye ten times at 30 minute intervals. The conditions of the front and the anterior chamber of the eye were observed just before and 1, 2 and 4 hours after the final application, and the damage to the cornea was observed 4 hours after the final application. Into the conjunctival sac of a left eye, the base only, which was free from the test compound, was applied. A) Conditions of the front of the eye: Scores were determined on the basis of the following scale of damage to the eye according to the improved Draize method. • a) Opacity • No cloud (normal); 0 • Scattered clouds in pervasive regions (the details of the iris are clearly visible); 1 • Easily distinguishable translucent regions (details of the iris are not visible so clearly); 2 • Opaque regions, details of the iris are invisible, and the size of the pupil is barely recognizable; 3 • Unclear, the iris is invisible; 4 • b) The size of the region of the cornea falling into the above • None; 0 • More than 0 and not more than 1/4; 1 • More than 1/4 and less than 1/2; 2 • More than 1/2 and less than 3/4; 3 • More than 3/4 and all over; 4 • Normal; 0 • More […], stasis, swelling, congestion around the cornea than normal (any or combinations of them), the iris is still responsive to light (positive for slow reaction); 1 • Irresponsible to light, and bleeding and apparent destruction (any or all of them); 2 • a) Rubor of the eyelid conjunctiva • No congestion; 0 • Slightly reddish mucosae and slight but recognizable vasodilation of the edge of the eyelid; 0.5 • Clearly abnormal congestion, appreciably red mucosae and remarkable swelling; 1 • Pretty remarkably red ocular mucosae and slightly unclear peripheral vessels; 2 • More intense conditions than 2 and pervasive beef-like rubor; 3 • b) Edema of the eyelid conjunctiva • Not swollen; 0 • Slight tendency of edema; 0.5 • More swollen than normal; 1 • Apparently swollen together with part of the integument of the eyelid; 2 • Swollen with about half of the eyelid sagging; 3 • Swollen with about half to all of the eyelid sagging; 4 • c) Rubor of the supraocular conjunctiva • No congestion; 0 • Slight vasodilation around the cornea; 0.5 • More remarkable vasodilation; 1 • Remarkable vasodilation toward the edge of the eyelid or remarkable rubor; 2 • d) Condition of the nictitating membrane • No congestion; 0 • Recognizable vasodilation and tendency of edema; 0.5 • More appreciable vasodilation and rubor of the edge of the eyelid; 1 • Extreme vasodilation and remarkable rubor of the entire nictitating membrane; 2 • e) Secretions • No secretions; 0 • A certain amount more than normal (exclusive of small amount of secretions found at the medial angle of the eye of a normal animal); 1 • Some secretions with a wet eyelid and neighboring fur; 2 • Some secretions with a wet eyelid and a large area of wet fur around the eye; 3 • B) Conditions of the anterior chamber: After the observation of the front of the eye, the inside of the anterior chamber was checked for flares under a slit lamp. • C) Damage to the cornea: After observation of the conditions of the front and anterior chamber of the eye 4 hours after the final application, the cornea was stained with fluorescein, and the remaining dye on the cornea was observed under a slit lamp. […] Further, to comprehensively evaluate damage to the front of the eye, the sum of the scores was calculated as a total score.

Data set [3] relates to smooth muscle in the respiratory system. Conditions: Izv. Akad. Nauk SSSR, Ser. Biol., 6, 831 (1989); cited from earlier work.
Data set [4] relates to smooth muscle in the digestive and circulatory systems. Particulars: Izv. Akad. Nauk SSSR, Ser. Biol., 6, 831 (1989); cited from earlier work.
Where [5] appears, read: 2 hours, 20 µℓ of 0.1% (w/v) ophthalmic solution.
Setting [6] is: 4 hours, 20 µℓ of 0.1% (w/v) ophthalmic solution.
[7] abbreviates: 6 hours, 20 µℓ of 0.1% (w/v) ophthalmic solution.
The mark [8] stands for this setting: After 1 hr, 0.01% (w/v) ophthalmic solution (pharmaceutical 3), 50 µℓ, average of three subjects.
Setting [9] is: After 2 hrs, 0.01% (w/v) ophthalmic solution (pharmaceutical 3), 50 µℓ, average of three subjects.
Setting [10] is: After 4 hrs, 0.01% (w/v) ophthalmic solution (pharmaceutical 3), 50 µℓ, average of three subjects.
[11] abbreviates: After 1 hr, 0.1% (w/v) ophthalmic solution (reference pharmaceutical 1).
[12] abbreviates: After 2 hrs, 0.1% (w/v) ophthalmic solution (reference pharmaceutical 1).
Setting [13] is: After 4 hrs, 0.1% (w/v) ophthalmic solution (reference pharmaceutical 1).

The structures appear in SMILES notation.

For `CC(C)OC(=O)CCC/C=C\C[C@@H]1[C@@H](/C=C/C(F)COc2cc(Cl)cc(Cl)c2)[C@H](O)C[C@@H]1O` (single isomer, unassigned) [Compound A, 16-(3,5-dichlorophenoxy)-15-deoxy-15-fluoro-17,18,19,20-tetranorprostaglandin F2α isopropyl ester], the “Change in ocular pressure after application” value (“Change in ocular pressure” for short) in data set [1] (2 hours, 20 µℓ of 0.01% (w/v) ophthalmic solution) is -0.8 mmHg; in data set [1] (setting [5]), -1.0 mmHg; in data set [1] (4 hours, 20 µℓ of 0.01% (w/v) ophthalmic solution), -1.8 mmHg; in data set [1] (setting [6]) it was -1.4 mmHg; in data set [1] (6 hours, 20 µℓ of 0.01% (w/v) ophthalmic solution), -3.0 mmHg; in data set [1] (setting [7]), -3.6 mmHg. Moreover, in data set [1] (6 hours after application), the “lowered the intraocular pressure, times as much as Latanoprost” value is listed as “about 1.5 times”. Further, the figures for the “scored in total, as much as Latanoprost did” value in data set [2] (1 hour after application), in data set [2] (2 hours after application) and in data set [2] (4 hours after application) were “about 1/5”, 1/2 and 1/3, respectively. Also, the “Condition of nictitating membrane” value in data set [2] (setting [8]) amounted to 0.2; in data set [2] (setting [9]) it was 0.2; in data set [2] (setting [10]) it was 0. The “Edema of eyelid conjunctiva” value in data set [2] (setting [8]), in data set [2] (setting [9]) and in data set [2] (setting [10]) was 0 in each case. Also, the Iridial congestion in data set [2] (setting [8]), in data set [2] (setting [9]) and in data set [2] (setting [10]) was 0 each time. Besides, the “Opacity of the cornea” value in data set [2] (setting [8]), in data set [2] (setting [9]) and in data set [2] (setting [10]) was 0 throughout. Moreover, the “Opaque fraction of the cornea” value in data set [2] (setting [8]), in data set [2] (setting [9]) and in data set [2] (setting [10]) was 0 in each case. Also, the “Rubor of eyelid conjunctiva” value in data set [2] (setting [8]) worked out at 0; in data set [2] (setting [9]), 0.2; in data set [2] (setting [10]), 0. In addition, the “Rubor of supraocular conjunctiva” value was 0.2 in data set [2] (setting [8]), 0.5 in data set [2] (setting [9]) and 0.2 in data set [2] (setting [10]). The Secretions in data set [2] (setting [8]), in data set [2] (setting [9]) and in data set [2] (setting [10]) was 0 in each case. For the same molecule, the Total score in data set [2] (After 1 hr, 0.01% (w/v) ophthalmic solution (pharmaceutical 3), 50 µℓ) was determined as 0.4; in data set [2] (After 2 hrs, 0.01% (w/v) ophthalmic solution (pharmaceutical 3), 50 µℓ), 0.9; in data set [2] (After 4 hrs, 0.01% (w/v) ophthalmic solution (pharmaceutical 3), 50 µℓ), 0.2. The “irritation of the front of the eye” value in data set [2] (when applied to the eye, slight congestion of the conjunctiva was observed) is “little irritant”.
For the molecule `CCCCCC(F)/C=C/[C@@H]1[C@@H](C/C=C\CCCC(=O)O)[C@@H](O)C[C@H]1O` (stereo partly drawn) [15-Fluoro-15-deoxy PGF2α, 15-fluoro-15-deoxy PGF2α], in data set [3], the “contraction action on smooth muscle in the respiratory system as compared with the naturally occurring PGF2α” value is 100 fold and the “relaxation action on smooth muscle in the respiratory system as compared with the naturally occurring PGF2α” value is recorded as 1000 fold. Moreover, in data set [4], the “action on the smooth muscle in the digestive and circulatory systems relative to the naturally occurring PGF2α” value is recorded as “comparable”.
Consider `CC(C)OC(=O)CCC/C=C\C[C@@H]1[C@@H](CC[C@@H](O)CCc2ccccc2)[C@H](O)C[C@@H]1O` [Latanoprost, 13,14-dihydro-17-phenyl-18,19,20-trinor PGF2α isopropyl ester, reference compound], for which the “Change in ocular pressure” value in data set [1] (setting [5]) is on record as -0.6 mmHg. Moreover, in data set [1] (setting [6]), the “Change in ocular pressure” value was -2.6 mmHg. Further, in data set [1] (setting [7]), the “Change in ocular pressure” value is -2.3 mmHg. Moreover, in data set [2] (setting [11]), the “Condition of nictitating membrane” value stood at 0.3, the “Edema of eyelid conjunctiva” value stood at 0, the Iridial congestion is on record as 0 and the “Opacity of the cornea” value came out at 0. Moreover, in data set [2] (setting [11]), the “Opaque fraction of the cornea” value amounted to 0, the “Rubor of eyelid conjunctiva” value is 0.5, the “Rubor of supraocular conjunctiva” value was 0.8 and the Secretions was determined as 0.3. Moreover, the Total score in data set [2] (setting [11]) was 1.9. Further, in data set [2] (setting [12]), the “Condition of nictitating membrane” value stood at 0.3, the “Edema of eyelid conjunctiva” value was 0, the Iridial congestion was 0 and the “Opacity of the cornea” value was 0. In addition, in data set [2] (setting [12]), the “Opaque fraction of the cornea” value was 0, the “Rubor of eyelid conjunctiva” value stood at 0.5, the “Rubor of supraocular conjunctiva” value is listed as 0.8 and the Secretions came to 0. Besides, the Total score in data set [2] (setting [12]) is 1.6. Moreover, in data set [2] (setting [13]), the “Condition of nictitating membrane” value amounted to 0.3, the “Edema of eyelid conjunctiva” value amounted to 0, the Iridial congestion turned out to be 0 and the “Opacity of the cornea” value stood at 0. Moreover, in data set [2] (setting [13]), the “Opaque fraction of the cornea” value came out at 0, the “Rubor of eyelid conjunctiva” value was 0, the “Rubor of supraocular conjunctiva” value was found to be 0.3 and the Secretions is 0. In addition, the Total score in data set [2] (setting [13]) stood at 0.6.
